Key:
KG-1 cells = assay: Measurement of fluorescence v time by flow cytometry, non-monocytic cell line; type: cell-based; conditions: KG-1 cells (insignificant quantities of hCE-1); FIG. 5; 3000 nM; median fluorescence intensity v time
Protocol: (§1) The degree of fluorescence of monocytic and non-monocytic cell lines following treatment with Example 1 was assessed using flow cytometry. This assessment was performed using a BD Biosciences BD FACSCanto™ Flow Cytometry System.
(§2) The cell lines are treated with a 3000 nM solution of Example 1. The resultant mixture is sampled at times 0, 1 hr, 2 hr, 4 hr and 6 hr. At each time point a sample of the cells is harvested by centrifugation, washed and allowed to rest for 30 minutes then washed again and re-suspended in a small volume for analysis by flow cytometry (FACSCanto™ A BD Biosciences) at an excitation of 488 nm blue laser line emission measured in an FITC detector using a 502 nm long pass dichroic and a 530±15 band pass filter. Data is expressed as median fluorescence intensity (MFI) for the cell population in the FITC channel, and plotted against time in a line graph. The unstained cells are set to an MFI of 100.

THP-1 cells = assay: Measurement of fluorescence v time by flow cytometry, monocytic cell line; type: cell-based; conditions: THP-1 cells (significant quantities of hCE-1); FIG. 6; 3000 nM; median fluorescence intensity v time
Protocol: as §1, §2

O=C(OC1CCCC1)[C@@H](NCc1ccc(OCCCNc2ccc([N+](=O)[O-])c3nonc23)cc1)c1ccccc1 [Example 1, Cyclopentyl (2S)-[(4-{3-[(7-nitro-2,1,3-benzoxadiazol-4-yl)amino]propoxy}benzyl)amino](phenyl)ethanoate]
increase in fluorescence following treatment (KG-1 cells): low increase in fluorescence
increase in fluorescence following treatment (THP-1 cells): high increase in fluorescence
